For data set [1], the system named is telomerase (total cell lysates of lung cancer cell line H1299). Nature of the data set: Telomeric repeat amplification protocol (TRAP) telomerase activity analysis. The data set is classed as biochemical. Particulars: 100 μM of compound; telomerase source H1299 cell lysate; gel electrophoresis, SYBER Green staining. The protocol:
Telomerase elongated product (CX primer: [NT]) was replicated by PCR. […] Three different concentrations of compounds were performed.

SMILES strings stand for the structures.

Four compounds from patent US20120316234A1, “ANTHRAQUINONE -BASED COMPOUND, THE SYNTHESIS PROCESSES AND THE APPLICATION THEREOF” (NATIONAL DEFENSE MEDICAL CENTER, priority 2011, published 2012) can be followed below.

Compound `O=C(CCl)Nc1ccc2c(c1)C(=O)c1ccc(NC(=O)CCl)cc1C2=O` had a melting point of 323 to 324 °C.
`COC(=O)CNCCC(=O)Nc1ccc(NC(=O)CCNCC(=O)OC)c2c1C(=O)c1ccccc1C2=O` [Compound 10] had a melting point of 155 to 156 °C. The “telomerase inhibition activity (TRAP analysis, FIG. 5)” value in data set [1] is listed as “have telomerase inhibition activity”.
`O=C(CCl)Nc1cccc2c1C(=O)c1cccc(NC(=O)CCl)c1C2=O` [Compound 11, 1,5-Bis(chloroacetamido)anthraquinone] had a melting point of 349 to 350 °C.
Compound `COC(=O)CNCCC(=O)Nc1cccc2c1C(=O)c1cccc(NC(=O)CCNCC(=O)OC)c1C2=O` [Compound 21] returned a melting point of 150 to 151 °C. In addition, in data set [1], the “telomerase inhibition activity (TRAP analysis, FIG. 5)” value is listed as “have telomerase inhibition activity”.
